Assay results taken from ChEMBL document CHEMBL1150948, “Tolyporphins J and K, two further porphinoid metabolites from the cyanobacterium Tolypothrix nodosa” (J Nat Prod, 1998).
The source made the active and inactive calls. The rule behind the calls is not given here.

Assays:
NCI/ADR-RES [1] = assay: Cytotoxicity against human MCF7/ADR cells for 60 mins by trypan blue staining; assay type: functional, cell-based
NCI/ADR-RES [2] = assay: Reversal of P-glycoprotein-mediated multidrug resistance in human MCF7/ADR cells assessed as sensitization to actinomycin D after 48 hrs by SRB assay; assay type: cell-based
[3] = molecular target: ATP-dependent translocase ABCB1 (Homo sapiens, UniProt P08183); assay: Inhibition of P-glycoprotein in human MCF7/ADR cells assessed as increase in [3H]vinblastine accumulation; assay type: cell-based; conditions: nci/adr-res
Sequence of ATP-dependent translocase ABCB1 (P08183 whole entry): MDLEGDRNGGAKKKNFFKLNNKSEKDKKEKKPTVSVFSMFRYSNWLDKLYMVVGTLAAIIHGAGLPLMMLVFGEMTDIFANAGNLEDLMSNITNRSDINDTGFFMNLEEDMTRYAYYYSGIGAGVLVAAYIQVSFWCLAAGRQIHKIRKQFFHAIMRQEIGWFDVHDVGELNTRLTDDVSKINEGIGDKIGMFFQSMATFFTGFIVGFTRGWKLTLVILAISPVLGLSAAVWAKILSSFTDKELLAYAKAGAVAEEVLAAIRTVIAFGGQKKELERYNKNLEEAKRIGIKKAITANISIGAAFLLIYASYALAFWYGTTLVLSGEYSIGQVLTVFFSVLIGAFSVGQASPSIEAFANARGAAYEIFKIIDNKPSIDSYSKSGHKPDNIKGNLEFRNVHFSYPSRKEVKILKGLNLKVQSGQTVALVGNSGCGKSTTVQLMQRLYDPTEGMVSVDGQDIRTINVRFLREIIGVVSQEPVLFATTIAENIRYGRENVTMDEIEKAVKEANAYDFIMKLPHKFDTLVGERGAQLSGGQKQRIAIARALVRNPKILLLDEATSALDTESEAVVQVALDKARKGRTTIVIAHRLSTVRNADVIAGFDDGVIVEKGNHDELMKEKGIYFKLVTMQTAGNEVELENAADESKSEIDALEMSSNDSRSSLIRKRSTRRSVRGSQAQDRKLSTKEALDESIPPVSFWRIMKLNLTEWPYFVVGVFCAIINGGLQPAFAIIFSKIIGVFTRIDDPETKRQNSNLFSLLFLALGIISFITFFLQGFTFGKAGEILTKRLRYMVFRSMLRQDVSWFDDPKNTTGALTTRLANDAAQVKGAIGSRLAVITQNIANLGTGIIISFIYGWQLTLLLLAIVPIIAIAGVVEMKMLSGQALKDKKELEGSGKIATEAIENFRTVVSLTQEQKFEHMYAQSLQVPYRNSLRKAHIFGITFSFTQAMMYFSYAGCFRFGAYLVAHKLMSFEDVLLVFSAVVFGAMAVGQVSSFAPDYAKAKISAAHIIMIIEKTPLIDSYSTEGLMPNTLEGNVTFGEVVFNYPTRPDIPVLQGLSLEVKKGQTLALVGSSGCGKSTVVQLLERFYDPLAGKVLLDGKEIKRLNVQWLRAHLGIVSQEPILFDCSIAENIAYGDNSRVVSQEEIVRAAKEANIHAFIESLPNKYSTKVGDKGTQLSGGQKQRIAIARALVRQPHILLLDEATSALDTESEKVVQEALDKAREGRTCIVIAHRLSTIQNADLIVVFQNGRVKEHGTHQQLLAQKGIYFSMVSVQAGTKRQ

Compound	Activity (NCI/ADR-RES [1])	Activity (NCI/ADR-RES [2])	Activity [3]
CC(=O)O[C@@H]1C[C@@H](O)[C@@H](C)OC1[C@]1(C)C(=O)c2cc3cc(C)c(cc4nc(cc5[nH]c(cc1n2)cc5C)C(=O)[C@@]4(C)C1O[C@H](C)[C@H](O)C[C@H]1OC(C)=O)[nH]3 (stereo partly specified) [TOLYPORPHIN A]	inactive	Active	Dose-dependent effect
Cc1cc2cc3nc(cc4cc(C)c(cc5nc(cc1[nH]2)C(=O)C5(C)O)[nH]4)C(=O)C3(C)O (stereo unspecified) [TOLYPORPHIN J]	inactive	Active	Dose-dependent effect
